Drawing on US7563903B2, “Acylaminothiazole derivatives, their preparation and their therapeutic use” (Sanofi-Aventis, priority 2003, dated 2009), this text covers EC50 and melting point for 20 molecules.

One data set addresses T1, gamma-secretase (Homo sapiens, UniProt P49768, M146L).
T1 construct: expressed in transfected cells; host or cells: CHO-K1 (clone 30-12)
Nature of the data set: β-amyloid cellular trial: inhibition of β-amyloid peptide (β-A4) production, ELISA. It counts as cell-based. The conditions noted are these: CHO-K1 line coexpressing the CT100 of APP and PSI M146L clone 30-12, 24-25 h incubation, ELISA of supernatants, read-out: EC50 (50% effective concentration). From the text:
For the β-amyloid cellular trial, the CHO-K1 line coexpressing the CT100 of APP and PSI M146L clone 30-12 is used. The line targets the inhibition of gamma-secretase. Presenilin is linked to the gamma-secretase activity (Wolfe M S, Haass C., The Role of presenilins in gamma-secretase activity, J. Biol. Chem., Feb. 23, 2001 276(8), 5413-6) and its coexpression with the amyloid protein or its N-terminal fragment causes an increase in the secretion of the A1-42 peptide (β-A4) thus generating a pharmacological tool which makes it possible to evaluate inhibition by the compounds of formula (I) of the production of the β-A4 peptide. The inoculation of the 96-well culture plates is carried out at the rate of 1×10^5 cells per well in 150 μl of incubation medium. […]
The quantity of bound peptide is detected in an indirect manner in the presence of a competitor corresponding to the truncated peptide, peptide 1-28 coupled to biotin which is then detected with streptavidin coupled to alkaline phosphatase. The substrate, p-Nitrophenyl Phosphate (pNPP FAST p-Nitrophenyl Phosphate, Sigma N2770), gives a yellow soluble reaction product which can be read at 405 nm. […] After incubating for 30 minutes at room temperature, the reaction is stopped by the addition of 100 μl per well of 0.1M EDTA and the reading is carried out at 405 nm.
A general note: In an ELISA, binding on a coated surface is turned into a signal by an enzyme label.

For the molecule `CCC[C@H](NC(=O)[C@@H](O)C(C)(C)C)C(=O)Nc1ncc(-c2ccccc2COc2ccc(Cl)c(Cl)c2)s1` [compound 50, (2S)—N-(5-{2-[(3,4-dichlorophenoxy)methyl]phenyl}-1,3-thiazol-2-yl)-2-{[(2S)-2-hydroxy-3,3-dimethylbutanoyl]amino}pentanamide], at gamma-secretase, the EC50 turned out to be 295 nM.

The term melting point denotes the temperature of the solid-liquid transition. On to `CCC[C@H](NC(=O)C(O)C(C)(C)C)C(=O)Nc1ncc(-c2ccccc2COc2ccccc2OC)s1` (stereo partly drawn) [compound 38, (2S)-2-[(2-hydroxy-3,3-dimethylbutanoyl)amino]-N-(5-{2-[(2-methoxyphenoxy)methyl]phenyl}-1,3-thiazol-2-yl}pentanamide], for which the melting point was 85 °C.

Regarding `CCC[C@H](NC(=O)[C@@H](O)C(C)(C)C)C(=O)Nc1ncc(-c2ccccc2COc2cccc(OC)c2OC)s1` [compound 23, (2S)—N-(5-{2-[(2,3-dimethoxyphenoxy)methyl]-phenyl}-1,3-thiazol-2-yl)-2-{[(2S)-2-hydroxy-3,3-dimethylbutanoyl]amino}pentanamide], the melting point was 99 °C.

With `CCC[C@H](NC(=O)[C@@H](O)C(C)(C)C)C(=O)Nc1ncc(-c2ccccc2COC(C)C)s1` [compound 11, (2S)-2-{[(2S)-2-hydroxy-3,3-dimethylbutanoyl]amino}-N-{5-[2-(isopropoxymethyl)phenyl]-1,3-thiazol-2-yl}pentanamide], the melting point was 63 °C.

Turning to `CCC[C@H](NC(=O)[C@@H](O)C(C)C)C(=O)Nc1ncc(-c2ccccc2COc2cccc(F)c2)s1` [compound 63, (2S)—N-(5-{2-[(3-fluorophenoxy)methyl]phenyl}-1,3-thiazol-2-yl)-2-{[(2S)-2-hydroxy-3-methylbutanoyl]amino}pentanamide], the melting point was found to be 130.7 °C.

Turning to `CCC[C@H](NC(=O)[C@@H](O)C(C)(C)C)C(=O)Nc1ncc(-c2ccccc2COc2c(C)cccc2C)s1` [compound 28, (2S)—N-(5-{2-[(2,6-dimethylphenoxy)methyl]phenyl}-1,3-thiazol-2-yl)-2-{[(2S)-2-hydroxy-3,3-dimethylbutanoyl]amino}pentanamide], the melting point came out at 87 °C.

`CCC[C@H](NC(=O)C(O)C(C)(C)C)C(=O)Nc1ncc(-c2ccccc2COc2ccccc2OCC)s1` (stereo partly drawn) [compound 39, (2S)—N-(5-{2-[(2-ethoxyphenoxy)methyl]phenyl}-1,3-thiazol-2-yl)-2-[(2-hydroxy-3,3-dimethylbutanoyl)amino]pentanamide] showed a melting point of 88 °C.

As to `CCC[C@H](NC(=O)[C@@H](O)C(C)(C)C)C(=O)Nc1ncc(-c2ccccc2COc2ccncc2)s1` [Compound No. 70, (2S)-2-{[(2S)-2-hydroxy-3,3-dimethylbutanoyl]amino}-N-(5-{2-[(4-pyridinyloxy)methyl]phenyl}-1,3-thiazol-2-yl)pentanamide], the melting point was 112.7 °C.

Take `CCC[C@H](NC(=O)[C@@H](O)C(C)(C)C)C(=O)Nc1ncc(-c2ccccc2COc2cccc(Cl)c2)s1` [compound 29, (2S)—N-(5-{2-[(3-chlorophenoxy)methyl]phenyl}-1,3-thiazol-2-yl)-2-{[(2S)-2-hydroxy-3,3-dimethylbutanoyl]amino}pentanamide]: the melting point stood at 169 °C.

`CCC[C@H](NC(=O)[C@@H](O)C(C)(C)C)C(=O)Nc1ncc(-c2ccccc2COc2cccc(F)c2F)s1` [compound 74, (2S)—N-(5-{2-[(2,3-difluorophenoxy)methyl]phenyl}-1,3-thiazol-2-yl)-2-{[(2S)-2-hydroxy-3,3-dimethylbutanoyl]amino}pentanamide] showed a melting point of 82 °C.

On to `CCC[C@H](NC(=O)[C@@H](O)C(C)(C)C)C(=O)Nc1ncc(-c2ccccc2COc2cc(C)ccc2Cl)s1` [compound 67, (2S)—N-(5-{2-[(2-chloro-5-methylphenoxy)methyl]phenyl}-1,3-thiazol-2-yl)-2-{[(2S)-2-hydroxy-3,3-dimethylbutanoyl]amino}pentanamide], for which the melting point came to 82 °C.

For the molecule `CCC[C@H](NC(=O)[C@@H](O)C(C)(C)C)C(=O)Nc1ncc(-c2ccccc2COc2ccccc2C)s1` [compound 36, (2S)-2-{[(2S)-2-hydroxy-3,3-dimethylbutanoyl]amino}-N-(5-{2-[(2-methylphenoxy)methyl]phenyl}-1,3-thiazol-2-yl}pentanamide], the melting point came to 96.5 °C.

Take `CCC[C@H](NC(=O)[C@@H](O)C(C)(C)C)C(=O)Nc1ncc(-c2cc(C)ccc2COc2ccccc2)s1` [compound 64, (2S)-2-{[(2S)-2-hydroxy-3,3-dimethylbutanoyl]amino}-N-{5-[5-methyl-2-(phenoxymethyl)phenyl]-1,3-thiazol-2-yl}pentanamide]: the melting point stood at 170 °C.

Molecule `CCC[C@H](NC(=O)C(O)C(C)(C)C)C(=O)Nc1ncc(-c2ccccc2COc2c(Cl)cccc2Cl)s1` (stereo partly drawn) [compound 41, (2S)—N-(5-{2-[(2,6-dichlorophenoxy)methyl]phenyl}-1,3-thiazol-2-yl)-2-[(2-hydroxy-3,3-dimethylbutanoyl)amino]pentanamide] had a melting point of 126 °C.

On to `CCC[C@H](NC(=O)C(=O)C(C)CC)C(=O)Nc1ncc(-c2ccccc2COC(C)C)s1` (stereo partly drawn) [compound 14, N-{(1S)-1-[({5-[2-(isopropoxymethyl)phenyl]-1,3-thiazol-2-yl}amino)carbonyl]butyl}-3-methyl-2-oxopentanamide], for which the melting point amounted to 112 °C.

`CCC[C@H](NC(=O)[C@@H](O)C(C)(C)C)C(=O)Nc1ncc(-c2cc(Cl)ccc2COc2ccccc2)s1` [compound 55, (2S)—N-{5-[5-chloro-2-(phenoxymethyl)phenyl]-1,3-thiazol-2-yl}-2-{[(2S)-2-hydroxy-3,3-dimethylbutanoyl]amino}pentanamide]: the melting point was found to be 120.7 °C.

`CCC[C@H](NC(=O)[C@@H](O)C(C)C)C(=O)Nc1ncc(-c2cc(C)ccc2COc2ccccc2)s1` [compound 60, (2S)-2-{[(2S)-2-hydroxy-3-methylbutanoyl]amino}-N-{5-[5-methyl-2-(phenoxymethyl)phenyl]-1,3-thiazol-2-yl}pentanamide] returned a melting point of 125.5 °C.

In the case of `CCC[C@H](NC(=O)[C@@H](O)C(C)(C)C)C(=O)Nc1ncc(-c2ccccc2COCC)s1` [compound 15, (2S)—N-{5-[2-(ethoxymethyl)phenyl]-1,3-thiazol-2-yl}-2-{[(2S)-2-hydroxy-3,3-dimethylbutanoyl]amino}pentanamide], the melting point is 148 °C.

With `CCC[C@H](NC(=O)[C@@H](O)C(C)(C)C)C(=O)Nc1ncc(-c2ccccc2COc2cc(OC)cc(OC)c2)s1` [compound 25, (2S)—N-(5-{2-[(3,5-dimethoxyphenoxy)methyl]-phenyl}-1,3-thiazol-2-yl)-2-{[(2S)-2-hydroxy-3,3-dimethylbutanoyl]amino}pentanamide], the melting point was 66.5 °C.

`CCC[C@H](NC(=O)[C@@H](O)C(C)(C)C)C(=O)Nc1ncc(-c2ccccc2COc2cc(C)c(C)cc2Cl)s1` [compound 71, (2S)—N-(5-{2-[(2-chloro-4,5-dimethylphenoxy)methyl]phenyl}-1,3-thiazol-2-yl)-2-{[(2S)-2-hydroxy-3,3-dimethylbutanoyl]amino}pentanamide] had a melting point of 85 °C.
